According to patent US20030220524A1, “Sulfur containing compounds” (priority 2000, published 2003):

Columns and labels:
NB-4 leukemic cell line = assay: Fixed propidium iodide staining, flow cytometry; assay type: cell-based, human; settings: 48 h
[1] = test system: WM793 melanoma tumour cell line; assay: MTT assay; assay type: cell-based; settings: Homo sapiens, 48 h, read-out: MTT50
Description: (§1) All cell lines were assayed as asynchronously growing cells. Leukemic cell lines, OCI-AML-2, OCI-AML-3 (referred to hereafter as AML-2 and AML-3, respectively), NB-4, KK, B1, G2, and W1 were cultured in alpha-minimal essential medium (α-MEM) (Princess Margaret Hospital Media Services) supplemented with 10% fetal bovine serum (FBS) (Sigma, St. Louis, Mo.). Non-transformed, diploid fibroblast lines WI38 and IMR90, were cultured in α-MEM and MEM F-15, respectively supplemented with 10% FBS. Media for IMR90 cells was also supplemented with 1.5 g/L bicarbonate and 1 mM pyruvate. Breast tumour cell lines, MDA-231, SK-BR-3, MCF-7, ZR-751, and melanoma tumour cell lines, WM9, WM983, WM793, 1232, were grown in α-MEM supplemented with 10% fetal bovine serum. Prostate tumour cell lines, DU145 and PC-3, were grown in RPMI 1640 media supplemented with 10% FBS. All cell lines were cultured in the presence of penicillin/streptomycin. Mononucleated cells were isolated from normal bone marrow using Ficoll hypaque and then T-cell depleted. T-cell depletion was performed by incubating the mononucleated bone marrow cells in α-MEM at a concentration of 2×10^7 cells/mL with 10% absor FBS and 10% (v/v) sheep red blood cells for 4 to 16 h. Absor FBS was prepared beforehand by heating FBS at 56° C. for 1 h, incubating with sheep red blood cells at 0.5% (v/v) for 1 h and then filtering the FBS with a […]. The T-cell depleted, mononucleated cells were recovered using Ficoll hypaque and were maintained in α-MEM supplemented with 20% FBS and 10% 5637 ? nditioned media. 5637 conditioned media ? s previously harvested from confluent 5637 cells after a 3 day incubation. Normal bone marrow from bone marrow transplant donor was collected following informed consent according to institutional guidelines.
(§2) Approximately 20 mg of each compound was dissolved in 5 mL of ACS grade acetone (Sigma) using a 5 mL volumetric flask. Stock solutions of the compounds were stored in the dark at −20° C. Compounds were diluted prior to each experiment.
(§3) Adherent cells were seeded at 67×10^3 cells/mL in a 96 well plate (Falcon, Mississauga, Ontario) the day prior to exposure to compound. Suspension cells were seeded at 27×10^4 cells/mL in a 96 well plate the day of exposure to compound. Mononucleated, T-cell depleted normal bone marrow cells were seeded at 67×10^4 cells/mL in a 96 well plate the day of exposure to compound. Compounds and solvent control were added to cells and assayed in triplicate or sextuplet. Following 48 h of incubation at 37° C. with 5% CO2, 40 μL of a 5 mg/mL solution of 3-[4,5-dimethylthiazol-2-yl]-2,5-diphenyltetrazolium bromide (MTT) substrate (Sigma) in Dulbecco's phosphate-buffered saline (D-PBS) was added. After 4 h of incubation at 37° C. with 5% CO2, the resulting violet formazan precipitate was solubilized by the addition of 80 μL of a 0.01 M HCI, 10% sodium dodecyl sulfate (SDS; Sigma) solution overnight at 37° C. with 5% CO2. The plates were then analyzed using the BioRad Benchmark Microplate Reader (BioRad Laboratories, Hercules, Calif.) at 570 nm to determine the optical density of the samples. MTT data was analyzed using Prism 3.0 (GraphPad Software, Inc., San Diego, Calif.) by the Chou-Talalay method. MTT graphs shown are a representative experiment.
(§4) Adherent cells were seeded at 67×10^3 cells/mL in a 96 well plate (Falcon, Mississauga, Ontario) the day prior to exposure to compound. Suspension cells were seeded at 27×10^4 cells/mL in a 96 well plate the day of exposure to compound. Mononucleated, T-cell depleted normal bone marrow cells were seeded at 67×10^4 cells/mL in a 96 well plate the day of exposure to compound. Compounds and solvent control were added to cells and assayed in triplicate or sextuplet. […]

[2] = test system: DU145 prostate tumour cell line; assay: MTT assay; assay type: cell-based; settings: Homo sapiens, DU-145, 48 h, read-out: MTT50
Description: as §1, §2, §3, §4

[3] = test system: ZR-751 breast tumour cell line; assay: MTT assay; assay type: cell-based; settings: Homo sapiens, ZR-75-1, 48 h, read-out: MTT50
Description: as §1, §2, §3, §4

[4] = test system: WM9 melanoma tumour cell line; assay: MTT assay; assay type: cell-based; settings: 48 h, read-out: MTT50
Description: as §1, §2, §3, §4

[5] = test system: SK-BR-3 breast tumour cell line; assay: MTT assay; assay type: cell-based; settings: Homo sapiens, 48 h, read-out: MTT50
Description: as §1, §2, §3, §4

[6] = test system: MDA-231 breast tumour cell line; assay: MTT assay; assay type: cell-based; settings: Homo sapiens, MDA-MB-231, 48 h, read-out: MTT50
Description: as §1, §2, §3, §4

[7] = test system: 1232 melanoma tumour cell line; assay: MTT assay; assay type: cell-based; settings: 48 h, read-out: MTT50
Description: as §1, §2, §3, §4

[8] = test system: WM983 melanoma tumour cell line; assay: MTT assay; assay type: cell-based; settings: 48 h, read-out: MTT50
Description: as §1, §2, §3, §4

For `CSSc1ccc([N+](=O)[O-])cc1` [M, methyl p-nitrophenyl disulphide], the “% pre-G1 (Fixed PI)” value (NB-4 leukemic cell line; cell line printed NBA, dose 20 uM) was 16% and the “% pre-G1 (Fixed PI)” value (NB-4 leukemic cell line; cell line printed NBA, dose 40 uM) was 60%.
Work on `CCC(=O)OCSSc1ccccc1` [Compound Q, 1-phenyl-1,2-dithiapropyl propionate] yielded an IC50 [1] of 47 µM, an IC50 [2] of 65.4 µM and an IC50 [3] of 52 µM. The IC50 [4] was 41 µM, the IC50 [5] was 59 µM and the IC50 [6] was 68.9 µM. For the same compound, the IC50 [7] was 56 µM and the IC50 [8] was 47 µM.
For `CSSCC(=O)c1ccccc1` [Compound P, phenacyl methyl disulphide], the “% pre-G1 (Fixed PI)” value (NB-4 leukemic cell line; NB-4, dose 50 uM) was 18% and the “% pre-G1 (Fixed PI)” value (NB-4 leukemic cell line; NB-4, dose 150 uM) was 75%.
